pIC50: −log10 of the molar value.
What was measured:
PARP2 = PARP2 (Homo sapiens, UniProt Q9UGN5); test: PARP2 in vitro enzyme activity inhibition (chemiluminescence assay); assay type: biochemical; conditions: 5 nM of PARP2, method of test example 1; read-out: PARP2 activity inhibition IC50
Experimental: (§1) Following the method in test example 1, the IC50 value of the inhibition of each compound on PARP7 activity were detected and obtained. Reference was made to the method in test example 1, except that the 6.25 nM of PARP7 solution in the ribosylation reaction step was replaced with a 5 nM of PARP1 solution or a 5 nM of PARP2. Similar to the 6.25 nM of PARP7 solution, the 5 nM of PARP1 solution and 5 nM of PARP2 solution were also formulated and obtained by using 1× Assay buffer.

PARP7 [1] = target: T1, PARP7 (Homo sapiens, UniProt Q7Z3E1); test: PARP7 TR-FRET binding inhibition (displacement of probe RBN011147); conditions: TR-FRET, Biotin-labeled probe RBN011147; read-out: PARP7 binding inhibition IC50
T1 construct: purchased BPS 80527
T1 sequence (Q7Z3E1 1-657): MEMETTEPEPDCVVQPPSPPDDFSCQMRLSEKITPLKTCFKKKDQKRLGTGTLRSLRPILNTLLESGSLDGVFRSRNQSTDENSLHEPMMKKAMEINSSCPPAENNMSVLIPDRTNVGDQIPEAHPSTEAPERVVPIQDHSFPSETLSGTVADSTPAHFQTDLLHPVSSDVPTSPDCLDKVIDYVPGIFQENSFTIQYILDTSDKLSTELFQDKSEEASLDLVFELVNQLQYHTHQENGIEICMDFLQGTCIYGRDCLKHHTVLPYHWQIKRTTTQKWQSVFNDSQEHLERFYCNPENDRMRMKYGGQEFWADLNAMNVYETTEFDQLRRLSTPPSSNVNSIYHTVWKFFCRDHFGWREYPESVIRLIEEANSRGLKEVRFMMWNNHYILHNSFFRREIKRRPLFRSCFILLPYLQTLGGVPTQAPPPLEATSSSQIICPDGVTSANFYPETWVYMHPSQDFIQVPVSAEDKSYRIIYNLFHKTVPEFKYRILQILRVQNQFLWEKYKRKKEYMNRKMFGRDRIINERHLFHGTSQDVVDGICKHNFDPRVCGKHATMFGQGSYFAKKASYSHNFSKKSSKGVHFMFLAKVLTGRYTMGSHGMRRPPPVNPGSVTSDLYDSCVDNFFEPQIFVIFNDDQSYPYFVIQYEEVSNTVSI
Experimental: The ability of the compound to substitute the probe RBN011147 (Wigle et al., 2020, Cell Chemical Biology 27, 877-887) was tested by a TR-FRET method, and IC50 was calculated to evaluate the binding ability of the compound to PARP7. […]

PARP1 = PARP1 (Homo sapiens, UniProt P09874); test: PARP1 in vitro enzyme activity inhibition (chemiluminescence assay); assay type: biochemical; conditions: 5 nM of PARP1 solution, method of test example 1; read-out: PARP1 activity inhibition IC50
Experimental: as §1

NCI-H1373 cells = test: Inhibition on NCI-H1373 cell proliferation (Cell-Titer-Glo); assay type: cell-based; conditions: Homo sapiens, 144 h; NCI-H1373 cells, incubation for 6 days, Cell-Titer-Glo; read-out: NCI-H1373 cell proliferation inhibition IC50
PARP7 [2] = target: T1, PARP7; test: Inhibition of the compound on PARP7 protein activity (ADP-ribosylation, chemiluminescence); assay type: biochemical; conditions: Histone H1 coated plate, Biotin-Labeled NAD+, 2 h at room temperature, chemiluminescence; read-out: PARP7 activity inhibition IC50
PARP7 [3] = target: T1, PARP7; test: PARP7 in vitro enzyme activity inhibition (chemiluminescence assay, selectivity test); assay type: biochemical; conditions: 6.25 nM of PARP7 solution, method of test example 1; read-out: PARP7 activity inhibition IC50
Experimental: as §1

Sequence of PARP2 (Q9UGN5 whole entry, species assumed): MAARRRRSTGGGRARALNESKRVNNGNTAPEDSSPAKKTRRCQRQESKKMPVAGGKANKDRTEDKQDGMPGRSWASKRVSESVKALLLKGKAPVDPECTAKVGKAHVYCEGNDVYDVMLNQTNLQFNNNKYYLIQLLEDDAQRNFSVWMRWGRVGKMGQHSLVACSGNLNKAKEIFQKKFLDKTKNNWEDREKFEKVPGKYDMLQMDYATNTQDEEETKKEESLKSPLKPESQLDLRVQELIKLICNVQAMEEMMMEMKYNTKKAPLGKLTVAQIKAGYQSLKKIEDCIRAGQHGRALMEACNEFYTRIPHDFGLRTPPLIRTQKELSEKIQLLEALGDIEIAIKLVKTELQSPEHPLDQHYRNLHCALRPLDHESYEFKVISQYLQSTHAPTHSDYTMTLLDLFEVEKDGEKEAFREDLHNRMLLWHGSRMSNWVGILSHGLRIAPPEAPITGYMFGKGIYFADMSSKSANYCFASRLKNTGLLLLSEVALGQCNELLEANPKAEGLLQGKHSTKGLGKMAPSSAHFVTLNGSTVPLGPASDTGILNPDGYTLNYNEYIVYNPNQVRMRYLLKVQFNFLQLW
Sequence of PARP1 (P09874 whole entry, species assumed): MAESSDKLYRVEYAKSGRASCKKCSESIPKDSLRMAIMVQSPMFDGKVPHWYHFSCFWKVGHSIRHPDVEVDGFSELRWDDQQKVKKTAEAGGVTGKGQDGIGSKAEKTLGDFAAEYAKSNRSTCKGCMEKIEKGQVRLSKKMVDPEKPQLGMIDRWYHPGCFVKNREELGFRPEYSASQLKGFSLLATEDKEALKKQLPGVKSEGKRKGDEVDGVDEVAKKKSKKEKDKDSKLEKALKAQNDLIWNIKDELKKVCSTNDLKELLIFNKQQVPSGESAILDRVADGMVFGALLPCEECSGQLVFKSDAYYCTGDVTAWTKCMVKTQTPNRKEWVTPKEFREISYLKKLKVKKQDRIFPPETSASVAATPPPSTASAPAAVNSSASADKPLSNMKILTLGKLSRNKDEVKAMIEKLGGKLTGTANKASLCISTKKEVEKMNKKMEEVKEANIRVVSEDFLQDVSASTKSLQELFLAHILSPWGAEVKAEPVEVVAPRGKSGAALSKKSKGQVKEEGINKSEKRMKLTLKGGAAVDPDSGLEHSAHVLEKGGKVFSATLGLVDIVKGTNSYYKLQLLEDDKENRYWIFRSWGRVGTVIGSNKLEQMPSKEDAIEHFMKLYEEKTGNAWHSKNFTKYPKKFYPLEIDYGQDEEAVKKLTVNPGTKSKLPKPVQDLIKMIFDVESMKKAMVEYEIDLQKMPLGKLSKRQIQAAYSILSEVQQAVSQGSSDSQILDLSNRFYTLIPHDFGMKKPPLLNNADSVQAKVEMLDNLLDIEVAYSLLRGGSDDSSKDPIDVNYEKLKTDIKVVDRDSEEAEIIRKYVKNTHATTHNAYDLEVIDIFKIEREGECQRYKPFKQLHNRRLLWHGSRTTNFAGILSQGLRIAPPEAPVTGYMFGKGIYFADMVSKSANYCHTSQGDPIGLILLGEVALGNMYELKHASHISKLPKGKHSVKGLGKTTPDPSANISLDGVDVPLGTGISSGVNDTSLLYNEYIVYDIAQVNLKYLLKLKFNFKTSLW

Row | Structure (SMILES) | pIC50 (PARP2) | pIC50 (PARP7 [1]) | pIC50 (PARP1) | pIC50 (NCI-H1373 cells) | pIC50 (PARP7 [2]) | pIC50 (PARP7 [3])
1 | O=C(NCCC[C@@H](Nc1cn[nH]c(=O)c1C(F)(F)F)C(=O)NC1CCC1)c1ccc(-c2ncc(C(F)(F)F)s2)cc1 [Example 228] | 8.00 to 8.52 | > 8.00 | < 7.00 | > 6.52 | 8.00 to 8.52 | 8.00 to 8.52
2 | CNC(=O)[C@@H](CCCNC(=O)c1ccc(-c2ncc(C(F)(F)F)s2)cc1)Nc1cn[nH]c(=O)c1C(F)(F)F [Example 229] | 7.52 to 8.00 | 7.52 to 8.00 | 7.00 to 7.52 | > 6.52 | > 8.52 | > 8.52
3 | CN(C(=O)[C@@H](CCCNC(=O)c1ccc(-c2ncc(C(F)(F)F)s2)cc1)Nc1cn[nH]c(=O)c1C(F)(F)F)C1CCC1 [Example 230] | 8.00 to 8.52 | 7.00 to 7.52 | 7.00 to 7.52 | > 6.52 | 8.00 to 8.52 | 8.00 to 8.52
4 | CCNC(=O)C(CCCNC(=O)c1ccc(-c2ncc(C(F)(F)F)s2)cc1)Nc1cn[nH]c(=O)c1C(F)(F)F (stereo not drawn) [Example 231] | 8.00 to 8.52 | > 8.00 | 7.52 to 8.00 | > 6.52 | > 8.52 | > 8.52
5 | C[C@H]1CCN(C(=O)[C@@H](CCCNC(=O)c2ccc(-c3ncc(C(F)(F)F)s3)cc2)Nc2cn[nH]c(=O)c2C(F)(F)F)C1 [Example 232] | 8.00 to 8.52 | 7.52 to 8.00 | 8.00 to 8.52 | 6.00 to 6.52 | > 8.52 | > 8.52
6 | CC1CN(C(=O)[C@@H](CCCNC(=O)c2ccc(-c3ncc(C(F)(F)F)s3)cc2)Nc2cn[nH]c(=O)c2C(F)(F)F)C1 [Example 233] | > 8.52 | > 8.00 | 8.00 to 8.52 | 6.00 to 6.52 | > 8.52 | > 8.52
7 | O=C(NCCCC(Nc1cn[nH]c(=O)c1C(F)(F)F)C(=O)NC1CCCOC1)c1ccc(-c2ncc(C(F)(F)F)s2)cc1 (stereo not drawn) [Example 235] | 8.00 to 8.52 | > 8.00 | 8.00 to 8.52 | 6.00 to 6.52 | > 8.52 | > 8.52
8 | CO[C@H]1CCN(C(=O)[C@@H](CCCNC(=O)c2ccc(-c3ncc(C(F)(F)F)s3)cc2)Nc2cn[nH]c(=O)c2C(F)(F)F)C1 [Example 237] | 8.00 to 8.52 | > 8.00 | 7.52 to 8.00 | 6.00 to 6.52 | > 8.52 | > 8.52
9 | C[C@@H]1COCCN1C(=O)[C@@H](CCCNC(=O)c1ccc(-c2ncc(C(F)(F)F)s2)cc1)Nc1cn[nH]c(=O)c1C(F)(F)F [Example 238] | 7.52 to 8.00 | > 8.00 | 7.00 to 7.52 | 6.00 to 6.52 | > 8.52 | > 8.52
10 | N#C[C@@H]1CCN(C(=O)[C@@H](CCCNC(=O)c2ccc(-c3ncc(C(F)(F)F)s3)cc2)Nc2cn[nH]c(=O)c2C(F)(F)F)C1 [Example 239] | < 7.00 | 7.52 to 8.00 | 7.52 to 8.00 | 6.00 to 6.52 | > 8.52 | > 8.52
11 | O=C(NCCC[C@@H](Nc1cn[nH]c(=O)c1C(F)(F)F)C(=O)N1CC[C@H](F)C1)c1ccc(-c2ncc(C(F)(F)F)s2)cc1 [Example 241] | 8.00 to 8.52 | 7.52 to 8.00 | 7.52 to 8.00 | 5.52 to 6.00 | > 8.52 | > 8.52
12 | CC1(F)CN(C(=O)[C@@H](CCCNC(=O)c2ccc(-c3ncc(C(F)(F)F)s3)cc2)Nc2cn[nH]c(=O)c2C(F)(F)F)C1 [Example 242] | 8.00 to 8.52 | 7.52 to 8.00 | 7.00 to 7.52 | 5.52 to 6.00 | 8.00 to 8.52 | 8.00 to 8.52
13 | N#CC1CCN(C(=O)[C@@H](CCCNC(=O)c2ccc(-c3ncc(C(F)(F)F)s3)cc2)Nc2cn[nH]c(=O)c2C(F)(F)F)CC1 [Example 243] | 8.00 to 8.52 | > 8.00 | 8.00 to 8.52 | < 5.52 | > 8.52 | > 8.52
14 | O=C(NCCC[C@@H](Nc1cn[nH]c(=O)c1C(F)(F)F)C(=O)Nc1ccccn1)c1ccc(-c2ncc(C(F)(F)F)s2)cc1 [Example 244] | 7.00 to 7.52 | 7.00 to 7.52 | 8.00 to 8.52 | < 5.52 | > 8.52 | > 8.52
15 | COC1(C)CN(C(=O)[C@@H](CCCNC(=O)c2ccc(-c3ncc(C(F)(F)F)s3)cc2)Nc2cn[nH]c(=O)c2C(F)(F)F)C1 [Example 246] | 8.00 to 8.52 | > 8.00 | 7.52 to 8.00 | 5.52 to 6.00 | > 8.52 | > 8.52
16 | CC1(C#N)CN(C(=O)[C@@H](CCCNC(=O)c2ccc(-c3ncc(C(F)(F)F)s3)cc2)Nc2cn[nH]c(=O)c2C(F)(F)F)C1 [Example 247] | 7.00 to 7.52 | 7.52 to 8.00 | 7.52 to 8.00 | < 5.52 | 8.00 to 8.52 | 8.00 to 8.52

From patent publication EP4800012A1, “COMPOUND ACTING AS PARP7 INHIBITOR” (Dovetree Medicines Unus, Inc., priority 2023, dated 2025)
